Measurements taken from patent US5506237A, “Bicyclic nitrogen compounds” (Adir et Compagnie, priority 1993, dated 1996).

Legend:
[1] = target: T1, prolyl-endopeptidase in rat cerebral cortex (Rattus norvegicus, UniProt O70196); test: In vivo inhibition of prolyl-endopeptidase in rat cerebral cortex after IP administration; conditions: 1 mg/kg IP, 30 minutes before preparation of the tissue extract
T1 sequence (O70196 1-710): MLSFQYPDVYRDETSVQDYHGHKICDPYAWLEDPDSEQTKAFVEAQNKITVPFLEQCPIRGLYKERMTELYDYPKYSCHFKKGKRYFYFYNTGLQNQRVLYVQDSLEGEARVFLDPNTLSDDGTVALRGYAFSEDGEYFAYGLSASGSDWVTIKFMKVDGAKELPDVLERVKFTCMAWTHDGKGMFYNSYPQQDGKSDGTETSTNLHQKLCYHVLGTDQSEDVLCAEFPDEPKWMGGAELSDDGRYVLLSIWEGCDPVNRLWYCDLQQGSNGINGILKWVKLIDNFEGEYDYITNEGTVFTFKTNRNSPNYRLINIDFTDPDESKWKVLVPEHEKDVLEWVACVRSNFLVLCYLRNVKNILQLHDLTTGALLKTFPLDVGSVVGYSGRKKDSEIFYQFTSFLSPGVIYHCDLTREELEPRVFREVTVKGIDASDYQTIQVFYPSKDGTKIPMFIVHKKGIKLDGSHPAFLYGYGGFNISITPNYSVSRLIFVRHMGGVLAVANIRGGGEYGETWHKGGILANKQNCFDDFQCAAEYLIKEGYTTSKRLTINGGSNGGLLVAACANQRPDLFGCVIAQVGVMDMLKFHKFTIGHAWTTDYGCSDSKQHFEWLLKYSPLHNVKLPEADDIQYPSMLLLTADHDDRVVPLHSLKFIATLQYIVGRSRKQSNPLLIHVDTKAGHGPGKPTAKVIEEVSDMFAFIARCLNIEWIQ

[2] = target: T1, prolyl-endopeptidase in rat cerebral cortex; test: Duration of action with respect to in vivo inhibition of prolyl-endopeptidase in rat cerebral cortex; conditions: IP
[3] = target: T1, prolyl-endopeptidase in rat cerebral cortex; test: Oral bioavailability estimated from inhibiting effect after oral versus IP administration; assay type: in vivo; conditions: inhibiting effect (%) after oral divided by that after IP administration, 30 or 60 minutes
[4] = target: Prolyl-endopeptidase; test: biochemical
Chain of Prolyl-endopeptidase (P27028 21-705): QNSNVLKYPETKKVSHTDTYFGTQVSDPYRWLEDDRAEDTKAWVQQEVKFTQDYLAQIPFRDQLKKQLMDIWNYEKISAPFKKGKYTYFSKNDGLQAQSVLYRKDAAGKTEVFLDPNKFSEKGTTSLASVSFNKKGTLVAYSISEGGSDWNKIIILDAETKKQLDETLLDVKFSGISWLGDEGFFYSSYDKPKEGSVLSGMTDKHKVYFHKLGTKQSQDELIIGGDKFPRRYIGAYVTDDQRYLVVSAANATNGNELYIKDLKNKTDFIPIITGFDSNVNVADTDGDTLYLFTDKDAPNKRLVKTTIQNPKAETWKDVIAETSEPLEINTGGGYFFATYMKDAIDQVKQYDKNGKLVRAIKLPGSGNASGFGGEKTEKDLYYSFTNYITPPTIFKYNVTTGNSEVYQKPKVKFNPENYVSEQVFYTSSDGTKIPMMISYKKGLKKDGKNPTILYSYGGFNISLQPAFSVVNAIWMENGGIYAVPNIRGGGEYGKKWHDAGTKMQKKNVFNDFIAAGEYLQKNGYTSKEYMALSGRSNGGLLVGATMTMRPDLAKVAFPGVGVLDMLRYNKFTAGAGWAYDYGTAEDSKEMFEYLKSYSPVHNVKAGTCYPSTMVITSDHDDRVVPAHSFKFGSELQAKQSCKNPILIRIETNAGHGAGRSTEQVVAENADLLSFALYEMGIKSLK

[5] = target: T1, prolyl-endopeptidase in rat cerebral cortex; test: In vitro inhibition of prolyl-endopeptidase in rat cerebral cortex extract (substrate TRH-pNitroaniline); assay type: biochemical; conditions: 37° C.

inhibition at 1 mg/kg [1] [%] | IC50 [4] [nM] | SMILES | also measured
41 | – | O=C([C@@H]1C[C@@H]2CCCC[C@@H]2N1C(=O)C1CC1Cc1ccccc1)N1CCCC1 (single isomer, unassigned) [Example 14] | –
54 | 14 | O=C([C@@H]1C[C@@H]2CCCC[C@@H]2N1C(=O)[C@@H]1C[C@H]1c1ccc(F)cc1)N1CCCC1 [Example 1] | t1/2 (time for which the inhibiting effect is equal to 50 % of the maximum effect measured at 30 minutes) ([2]; 1 mg/kg): 7 h; OBI (oral bioavailability index) ([3]; 1 mg/kg): 0.90
59 | 14 | O=C([C@@H]1C[C@@H]2CCCC[C@@H]2N1C(=O)[C@@H]1C[C@H]1c1cccs1)N1CCCC1 [Example 3, (2S,3aS,7aS)-1-{(1R,2R)-[2-(2-Thienyl)-1-cyclopropyl]carbonyl}-2-[(pyrrolidin-1-yl)carbonyl]perhydroindole] | IC50 [5]: 1.4 nM
49 | 3 | O=C([C@@H]1C2CCC(CC2)N1C(=O)[C@@H]1C[C@H]1c1cccc(C(F)(F)F)c1)N1CCCC1 [Example 6, (3S)-2-{(1R,2R)-[2-(3-Trifluoromethylphenyl)-1-cyclopropyl]carbonyl}-3-[(pyrrolidin-1-yl)carbonyl]-2-azabicyclo[2.2.2]octane] | –
42 | 40 | O=C([C@@H]1C2CCC(CC2)N1C(=O)[C@@H]1C[C@H]1c1ccc(F)cc1)N1CCCC1 [Example 2, (3S)-2-{(1R,2R)-[2-(4-Fluorophenyl)-1-cyclopropyl]carbonyl}-3-[(pyrrolidin-1-yl)carbonyl]-2-azabicyclo[2.2.2]octane] | t1/2 (time for which the inhibiting effect is equal to 50 % of the maximum effect measured at 30 minutes) ([2]; 1 mg/kg): 7 h
– | – | O=C[C@@H]1CCCN1C(=O)CCC(=O)NCc1ccc(Cl)cc1 [ONO, (S)-1-[N-4-chlorobenzylsuccinamoyl] pyrrolidine-2-carbaldehyde, reference compound] | t1/2 (time for which the inhibiting effect is equal to 50 % of the maximum effect measured at 30 minutes) ([2]; 30 mg/kg): 1 h
– | – | O=C([C@@H]1CSCN1C(=O)CCCc1ccccc1)N1CCCC1 [Zeria, N-(4-phenylbutanoyl)-L-thiaprolylpyrrolidineimide, reference compound] | t1/2 (time for which the inhibiting effect is equal to 50 % of the maximum effect measured at 30 minutes) ([2]; 30 mg/kg): 1 h; OBI (oral bioavailability index) ([3]; 30 mg/kg): 0.30
58 | – | O=C([C@@H]1C[C@@H]2CCCC[C@@H]2N1C(=O)[C@@H]1C[C@H]1c1cccc(C(F)(F)F)c1)N1CCCC1 [Example 5, (2S,3aS,7aS)-1-{(1R,2R)-[2-(3-Trifluoromethylphenyl)-1cyclopropyl]carbonyl}-2-[(pyrrolidin-1-yl)carbonyl]perhydroindole] | IC50 [5]: 1 nM
